One may read the melting point as the temperature of the solid-liquid transition.

`Cc1c(C)c2ccc(OCCCN3CCC(N)CC3)cc2oc1=O` registered a melting point of 92 to 94 °C.

Turning to `N#Cc1c(N2CC[C@@H](C3(N)CC3)C2)ccc2c(=O)c(C(=O)O)cn([C@@H]3C[C@@H]3F)c12`, the melting point lay within 138 to 140 °C.

On to `COCCOCC(=O)Nc1c([N+](=O)[O-])cnn1-c1c(Cl)cc(C(F)(F)F)cc1Cl`, for which the melting point fell in the range of 103 to 105 °C.

Molecule `CCCC(C(=O)N(C)C)n1cc(C)c(-c2ccccc2)n1` (configuration not stated) returned a melting point of 84 to 86 °C.

For `NCC1CCc2c(O)cccc2C1` (configuration not stated), the melting point fell in the range of 183 to 192 °C.

Molecule `Cc1cc(Cc2ccc(O)cc2)n(C)c1C(=O)c1ccc(Cl)cc1` came in with a melting point of 183 to 185 °C.

For `CC1(C)Oc2cc([N+](=O)[O-])c(NC(=O)Cc3ccc(-c4ccccc4)cc3)cc2C2OC21` (configuration not stated), the melting point was 171 to 174 °C.

`CC(=O)N1CC(CCN2CC=C(c3c[nH]c4cc(Cl)ccc34)CC2)c2cc(C)ccc21` (configuration not stated): the melting point is 179 to 181 °C.

On to `CC(C)S(=O)c1cnc(Cl)c(Cl)c1` (configuration not stated), for which the melting point was in the range of 62 to 64 °C.

Regarding `N#Cc1ncn2c1[C@@H]1CCCN1C(=O)c1cc(F)ccc1-2`, the melting point lay within 254 to 256 °C.

Molecule `Cc1ccc2c(c1)S(=O)(=O)CC(COC(=O)Nc1ccccc1)(COC(=O)Nc1ccccc1)C2=O` yielded a melting point of 85 to 95 °C.

The molecule `Nc1ccncc1Nc1ccc2cn[nH]c2c1` registered a melting point of 214 to 216 °C.

Molecule `CCCc1nnc2ccc(-c3ccccc3)nn12` had a melting point of 123 to 125 °C.

For `CCc1sc2ccc(C)cc2c1S(=O)(=O)Nc1onc(C)c1Br`, the melting point was in the range of 176 to 178 °C.

In turn, `CNC(=O)N(O)Cc1ccc(Br)cc1` gave a melting point of 165 to 167 °C.

Consider `CCC(CC)COc1ccc(-n2cc(C(=O)O)cn2)cc1C#N`, for which the melting point was in the range of 180 to 182 °C.

As for `O=C1[C@@H](N2C(=O)c3ccccc3C2=O)[C@@H](CCl)N1Cc1ccccc1` (relative stereo), the melting point is 149 °C.

`CCOC(=O)c1c(O)c2cc(F)cnc2n(Cc2ccc(OC)cc2)c1=O`: the melting point was 163 °C.

`O=C(Nc1ccc(C(=O)O)cc1)OCc1ccccc1`: the melting point was more than 235 °C.

For `CN(C)Cc1ccnc(OCCCNc2c(N)c(=O)c2=O)c1`, the melting point fell in the range of 212 to 214 °C.

`CCOC(=O)c1cn(-c2nc(SC(C)C)nc(C(F)(F)F)c2I)nc1C(F)(F)F` displayed a melting point of 107 to 108 °C.

Regarding `COCNC(=O)NC1CCC(=O)c2sccc21` (configuration not stated), the melting point was in the range of 155 to 158 °C.

In turn, `Clc1cc(Cl)c2cccc3c2c1N=C3NCCCCCn1ccnc1` gave a melting point of 191 to 192 °C.

`COc1ccc(C2(O)c3cc(NC(=O)CC(C)(C)C)c(C)c(C)c3OC2(C)C)c(OC)c1` (configuration not stated) registered a melting point of 150 to 151 °C.

In turn, `Cn1c(=O)[nH]c(=O)n(-c2cc(O)ccc2Br)c1=O` had a melting point of 265 to 270 °C.

Molecule `C[C@@H]1S[C@@H](C(=O)Nc2ccc(CN3CCCC3)cc2)Cc2cc3c(cc2C1=O)OCO3` displayed a melting point of 186 to 188 °C.

On to `O=C(O)c1cccc2c1CCc1ccc(F)cc1S2`, for which the melting point lay in the range of 209 to 211 °C.

`Oc1c(Cc2ccccc2)ccc2[nH]ccc12` registered a melting point of 104 to 106 °C.

With `CN1CCN(c2ccc3[nH]c(=O)c(-c4csc(-c5ccncc5)n4)c(N)c3c2)CC1`, the melting point is more than 220 °C.

Regarding `CC(=O)OC1CCC2(C)C(CCC3=C4C(=O)CC(C(C)CCC=C(C)C)C4(C)CCC32)C1` (configuration not stated), the melting point was in the range of 129 to 130 °C.

Consider `CCOC(=O)c1cccc([N+](=O)[O-])c1NCc1ccc(-c2ccccc2C#N)cc1`, for which the melting point is 119 to 120 °C.

In turn, `O=Cc1c2c(cn1Cc1ccccc1)OCCO2` registered a melting point of 75 °C.

In the case of `N#CC(C#N)=CNc1ccc(C2=NNC(=O)CC2)cc1`, the melting point was in the range of 290 to 295 °C.

On to `CSc1ccc(-n2c(-c3ccc(Cl)cc3)nc(SC)c(C#N)c2=O)cc1`, for which the melting point lay in the range of 206 to 207 °C.

Consider `CCCCCCN1CCN(Cc2ccc(NC(=S)Nc3ccccc3N)cc2)C(=O)C1=O`, for which the melting point is 160 °C.

`CS(=O)c1nsc(Cl)n1` (configuration not stated) showed a melting point of 72 °C.

`COc1ccc(-c2n[nH]c3ccsc23)cc1`: the melting point fell in the range of 143 to 144 °C.

Take `CCN(c1ccc(Cl)cc1[N+](=O)[O-])S(=O)(=O)c1ccc(Cl)cc1`: the melting point fell in the range of 122 to 123 °C.

As for `Cc1nc2c(C(=O)NC(C)(C(N)=O)C(C)C)c(C(=O)O)ccc2n1Cc1ccccc1` (configuration not stated), the melting point fell in the range of 145 to 150 °C.

As for `COc1cc(C)ccc1Oc1ccc(Br)cc1C=O`, the melting point fell in the range of 89 to 90 °C.

`O=S1(=O)CC=C(CBr)C1`: the melting point was in the range of 76 to 84 °C.

The molecule `CCCOC(=O)c1cc(-c2ccc(Cl)cc2)cnc1C` yielded a melting point of 54 to 57 °C.

Turning to `C[Si](C)(C)CCOC(=O)c1cccc(NC(=O)NCC(=O)O)c1`, the melting point came out at 173 °C.

For the molecule `CC(C)c1cccc(C(C)C)c1NC(=O)CNC(c1ccccc1)c1cccc(C(=O)O)c1` (configuration not stated), the melting point lay within 190 to 191 °C.

Consider `N#CCc1ccc(-c2nc3ccccc3o2)cc1[N+](=O)[O-]`, for which the melting point is 203 °C.

The molecule `C=CCc1cc(Nc2ccn(-c3ccccc3)n2)cc(CC=C)c1O` gave a melting point of 87 to 88 °C.

Regarding `CCCCCCCCCCCCCCCCCC(=S)SCC(C)C(=O)N1CCCC1C(=O)O` (configuration not stated), the melting point lay within 50 to 51 °C.

`COc1cc2c(cc1OC)C(C(=O)Nc1c(C(C)C)cccc1C(C)C)SCC2` (configuration not stated) registered a melting point of 72 to 74 °C.

Regarding `Cc1cc(OCCNC(=O)C2Cc3ccccc3N2S(=O)(=O)c2ccc(-c3cc(C(F)(F)F)ccc3Cl)cc2)ccc1CC(=O)O` (configuration not stated), the melting point lay in the range of 110 to 115 °C.

Regarding `CN(C)C1(c2ccccc2)CCC(=CC(=O)NCc2ccccc2)CC1` (configuration not stated), the melting point is 145 to 148 °C.

`Cc1sc(C(=O)OCc2ccc3c(c2)OCO3)cc1NC(=O)NCc1ccccc1`: the melting point lay in the range of 216 to 217 °C.

Consider `COc1ccc(Cl)cc1C(=O)NCCc1ccc(Br)c(S(=O)(=O)N=CN(C)C)c1`, for which the melting point lay in the range of 150 to 152 °C.

With `O=C(O)c1ccc(NC(=O)c2ccccc2SSc2ccccc2C(=O)Nc2ccc(C(=O)O)cc2)cc1`, the melting point was more than 285 °C.

`CC(C)N(CCN1C(=O)C(=O)c2cc(F)ccc21)C(C)C` gave a melting point of 100 to 102 °C.

`COC(=O)c1cc(COc2c(OC)c3cocc(OC)c-3c2C(C)=O)ccc1COc1c(OC)c2cocc(OC)c-2c1C(C)=O`: the melting point fell in the range of 87 to 89 °C.

Consider `CC=Cc1cccc2c(=O)c(C)c(-c3ccc(C(C)C)cc3)oc12`, for which the melting point lay within 105 to 107 °C.

As to `CCOP(=O)(/C=C/c1cn(CC)nc1OCc1ccc(OCc2nc(-c3ccco3)oc2C)c(OC)c1)OCC`, the melting point was 82 to 84 °C.

`Cc1ccc(S(=O)C2CC3C(=O)C(c4ccc(F)cc4)=CC2N3C)cc1` (mixture of isomers) showed a melting point of 186 °C.

In turn, `O=C(O)c1cc([N+](=O)[O-])c(-c2ccncc2)[nH]c1=O` returned a melting point of more than 300 °C.

In the case of `O=C1NC(Cc2c[nH]c3ccccc23)C(CCc2cc(C(F)(F)F)cc(C(F)(F)F)c2)N1CCN1CCOCC1` (configuration not stated), the melting point was found to be 207 °C.

The molecule `Oc1ccc2c(ccn2Nc2ccncc2F)c1` gave a melting point of 70 to 73 °C.

Take `Cc1cc2cccc(-c3ccc(Cl)cc3Cl)n2n1`: the melting point is 86.9 to 90 °C.

Values taken from a melting point compilation (Tetko et al.; mined from patent text by program, amines drawn as free bases though some values may be those of a salt).
